Experimental findings from US20260125375A1 (Pfizer Inc., priority 2022, published 2026) are described below.

In one assay the target is T1, C-CBL (residues 46-435) (Homo sapiens, UniProt P22681).
T1 construct: Purified CBL-B (residues 36-427) and C-CBL (residues 46-435) proteins from baculovirus-infected insect cells; made in house; host or cells: baculovirus-infected insect cells
T1 sequence (P22681 46-435): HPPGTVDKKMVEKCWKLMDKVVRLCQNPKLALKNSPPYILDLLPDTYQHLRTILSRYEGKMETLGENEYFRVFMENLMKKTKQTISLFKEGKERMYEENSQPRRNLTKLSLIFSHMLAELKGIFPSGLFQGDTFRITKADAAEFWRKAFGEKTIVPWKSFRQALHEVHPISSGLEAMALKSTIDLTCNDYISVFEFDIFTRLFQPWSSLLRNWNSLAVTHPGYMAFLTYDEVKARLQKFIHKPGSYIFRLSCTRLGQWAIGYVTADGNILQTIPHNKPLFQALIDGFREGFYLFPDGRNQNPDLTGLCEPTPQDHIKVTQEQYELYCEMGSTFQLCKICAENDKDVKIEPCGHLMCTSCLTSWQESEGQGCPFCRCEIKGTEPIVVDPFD
Kind of assay: Ligand Displacement Assay (LDA), HTRF competitive binding against BODIPY-labeled fluorescent tracer, C-CBL. To be noted: geometric mean of the number of tests, read-out: C-CBL Ki (nM) GMean. The source says:
(§1) Ligand Displacement Assay (LDA)
(§2) The purpose of the homogeneous time-resolved fluorescence energy transfer (HTRF) ligand displacement assay is to determine whether the compounds of the disclosure are competitive with a BODIPY-labeled compound; “fluorescent tracer” aka [6-cyclopropyl-5-(17-{5-[(3,5-dimethyl-2H-pyrrol-2-ylidene-KN)methyl]-1H-pyrrol-2-yl-κN}-15-oxo-5,8,11-trioxa-2,14-diazaheptadecan-1-yl)-N-(3-{3-[(4-methyl-4H-1,2,4-triazol-3-yl)methyl]oxetan-3-yl}phenyl)pyridine-2-carboxamidato](difluorido)boron and to assess CBL-B binding selectivity over C-CBL. The synthesis of this fluorescent tracer compound is described below.
(§3) Purified CBL-B (residues 36-427) and C-CBL (residues 46-435) proteins from baculovirus-infected insect cells were biotin labeled on their amino-terminal AviTag™ epitopes by the E. coli biotin ligase BirA to bind terbium-labeled streptavidin (SA-Tb). After optimizing the assays and determining KD values for the fluorescent tracer to CBL-B and C-CBL, compounds were tested using three-fold serial dilutions in duplicate from a top concentration of […] with a final DMSO concentration of 2%. […] The Ki (nM) values reported are the geometric means (GMean) of the number of tests conducted.
(In general: TR-FRET usually uses a lanthanide donor and a delayed reading to cut background.)

A further assay has as its target T2, CBL-B (residues 36-427) (Homo sapiens, UniProt Q13191).
T2 construct: Purified CBL-B (residues 36-427) and C-CBL (residues 46-435) proteins from baculovirus-infected insect cells; made in house; host or cells: baculovirus-infected insect cells
Kind of assay: Ligand Displacement Assay (LDA), HTRF competitive binding against BODIPY-labeled fluorescent tracer, CBL-B. Conditions: geometric mean of the number of tests, read-out: CBL-B Ki (nM) GMean.
Description: as §1, §2, §3

SMILES strings stand for the structures.

One may read the Ki as the equilibrium dissociation constant of an inhibitor or competing ligand from its target. On to `Cn1cnnc1[C@@H](c1cccc(-c2n[nH]c3ncc(Cl)cc23)c1)C1CCC1` [Example A4, 5-chloro-3-{3-[(R)-cyclobutyl(4-methyl-4H-1,2,4-triazol-3-yl)methyl]phenyl}-1H-pyrazolo[3,4-b]pyridine], for which the Ki was determined as 279 nM at C-CBL (residues 46-435) and 17.9 nM at CBL-B (residues 36-427).

`CC[C@@H](c1cccc(-c2n[nH]c3c([C@@H](C)NC[C@H](C)O)nc(C(F)(F)F)cc23)c1)c1nncn1C` (single isomer, unassigned) [Example D79]: the Ki at C-CBL (residues 46-435) is 1160 nM; at CBL-B (residues 36-427), 296 nM.

As for `CC(N[C@H]1CCC[C@@H]1O)c1nc(C(F)(F)F)cc2c(-c3cccc([C@H](c4nncn4C)C4CCCCC4)c3)n[nH]c12` (single isomer, unassigned) [Example C102], the Ki on C-CBL (residues 46-435) was 113 nM; on CBL-B (residues 36-427) it was 10.7 nM.

Regarding `C[C@@H](N)c1nc(C(F)(F)F)cc2c(-c3cccc([C@H](c4nncn4C)C4CCCCC4)c3)n[nH]c12` [Example K1, (1R)-1-[3-{3-[(R)-cyclohexyl(4-methyl-4H-1,2,4-triazol-3-yl)methyl]phenyl}-5-(trifluoromethyl)-1H-pyrazolo[3,4-c]pyridin-7-yl]ethan-1-amine], the Ki amounted to 289 nM at C-CBL (residues 46-435) and 36 nM on CBL-B (residues 36-427).

As to `C[C@@H](N[C@H]1COC[C@@H]1O)c1nc(C(F)(F)F)cc2c(-c3cccc([C@H](c4nncn4C)C4CCC4)c3)n[nH]c12` (single isomer, unassigned) [Example D62], the figures for the Ki at C-CBL (residues 46-435) and on CBL-B (residues 36-427) were 39.8 nM and 4.3 nM, respectively.

For the compound `CC(NC[C@H](C)O)c1nccc2c(-c3cccc([C@H](c4nncn4C)C4CCC4)c3)n[nH]c12` (single isomer, unassigned) [Example C125], the Ki on C-CBL (residues 46-435) turned out to be 147 nM; at CBL-B (residues 36-427), 12.2 nM.

Consider `Cn1cnnc1[C@@H](c1cccc(-c2n[nH]c3ncc(C(F)(F)F)cc23)c1)C1CCC1` [Example A5, 3-{3-[(R)-cyclobutyl(4-methyl-4H-1,2,4-triazol-3-yl)methyl]phenyl}-5-(trifluoromethyl)-1H-pyrazolo[3,4-b]pyridine], for which the Ki on C-CBL (residues 46-435) was 1060 nM; on CBL-B (residues 36-427) it was 89.1 nM.

Turning to `Cn1cnnc1CC1(c2cccc(-c3n[nH]c4cc(F)c(F)cc34)c2)COC1` [Example B5, 5,6-difluoro-3-(3-{3-[(4-methyl-4H-1,2,4-triazol-3-yl)methyl]oxetan-3-yl}phenyl)-1H-indazole], the Ki on C-CBL (residues 46-435) worked out at 375 nM; at CBL-B (residues 36-427), 58.9 nM.

Turning to `CC(O)c1nc(C2CC2)cc2c(-c3cccc(C4(Cc5nncn5C)COC4)c3)n[nH]c12` (single isomer, unassigned) [Example H6, (1ξ)-1-[5-cyclopropyl-3-(3-{3-[(4-methyl-4H-1,2,4-triazol-3-yl)methyl]oxetan-3-yl}phenyl)-1H-pyrazolo[3,4-c]pyridin-7-yl]ethan-1-ol], the figures for the Ki at C-CBL (residues 46-435) and on CBL-B (residues 36-427) were 142 nM and 35.6 nM, respectively.

As for `Cn1cnnc1[C@@H](c1cccc(-c2n[nH]c3c(CN[C@H]4CC[C@H]4O)nc(C(F)(F)F)cc23)c1)C1CCC1` (single isomer, unassigned) [Example D92], the Ki was determined as 36.1 nM at C-CBL (residues 46-435) and 4.5 nM at CBL-B (residues 36-427).

As for `CC(=O)NC(C)c1nc(C(F)(F)F)cc2c(-c3cccc([C@H](c4nncn4C)C4CCC4)c3)n[nH]c12` (stereo partly drawn) [Example M3], the Ki on C-CBL (residues 46-435) is 214 nM; at CBL-B (residues 36-427) it was 29 nM.

Take `C[C@H](N[C@H]1COC[C@H]1O)c1nc(C(F)(F)F)cc2c(-c3cccc([C@H](c4nncn4C)C4CCC4)c3)n[nH]c12` (single isomer, unassigned) [Example D61]: the Ki on C-CBL (residues 46-435) was 145 nM; on CBL-B (residues 36-427), 22 nM.

With `C[C@H](N[C@H]1COC[C@H]1O)c1nc(C(F)(F)F)cc2c(-c3cccc([C@H](c4nncn4C)C4CCC4)c3)n[nH]c12` (single isomer, unassigned) [Example D57], the figures for the inhibition constant (Ki) at C-CBL (residues 46-435) and at CBL-B (residues 36-427) were 46.7 nM and 5.2 nM, respectively.

In the case of `Cn1cnnc1[C@@H](c1cccc(-c2n[nH]c3c(C4CCCN4)nc(C(F)(F)F)cc23)c1)C1CCC1` (single isomer, unassigned) [Example L3], the Ki on C-CBL (residues 46-435) is 159 nM; at CBL-B (residues 36-427), 20.1 nM.

As for `CC(=O)NC(C)c1nc(C(F)(F)F)cc2c(-c3cccc([C@H](c4nncn4C)C4CCC4)c3)n[nH]c12` (single isomer, unassigned) [Example M2], the Ki on C-CBL (residues 46-435) was 225 nM; on CBL-B (residues 36-427), 30.9 nM.

Consider `CC(=O)NC(C)c1nc(C(F)(F)F)cc2c(-c3cccc(C4(Cc5nncn5C)COC4)c3)n[nH]c12` (single isomer, unassigned) [Example M1, N-{(1ξ)-1-[3-(3-{3-[(4-methyl-4H-1,2,4-triazol-3-yl)methyl]oxetan-3-yl}phenyl)-5-(trifluoromethyl)-1H-pyrazolo[3,4-c]pyridin-7-yl]ethyl}acetamide], for which the figures for the Ki at C-CBL (residues 46-435) and at CBL-B (residues 36-427) were 79.4 nM and 26.3 nM, respectively.

Turning to `C[C@@H](N[C@H]1COC[C@H]1O)c1nc(C(F)(F)F)cc2c(-c3cccc([C@H](c4nncn4C)C4CCC4)c3)n[nH]c12` (single isomer, unassigned) [Example D58], the Ki came out at 173 nM on C-CBL (residues 46-435) and 14.3 nM on CBL-B (residues 36-427).

On to `Cn1cnnc1CC1(c2cccc(-c3n[nH]c4ccc(F)cc34)c2)COC1` [Example B6, 5-fluoro-3-(3-{3-[(4-methyl-4H-1,2,4-triazol-3-yl)methyl]oxetan-3-yl}phenyl)-1H-indazole], for which the Ki is 437 nM at C-CBL (residues 46-435) and 71.8 nM at CBL-B (residues 36-427).

For `CC(O)c1nc(C2CC2)cc2c(-c3cccc(C4(Cc5nncn5C)COC4)c3)n[nH]c12` (single isomer, unassigned) [Example H5, (1ξ)-1-[5-cyclopropyl-3-(3-{3-[(4-methyl-4H-1,2,4-triazol-3-yl)methyl]oxetan-3-yl}phenyl)-1H-pyrazolo[3,4-c]pyridin-7-yl]ethan-1-ol], the figures for the Ki on C-CBL (residues 46-435) and at CBL-B (residues 36-427) were 93.6 nM and 28.5 nM, respectively.

For the compound `CN(C)c1nc2[nH]nc(-c3cccc([C@H](c4nncn4C)C4CCC4)c3)c2cc1C(F)(F)F` [Example E1, 3-{3-[(R)-cyclobutyl(4-methyl-4H-1,2,4-triazol-3-yl)methyl]phenyl}-N,N-dimethyl-5-(trifluoromethyl)-1H-pyrazolo[3,4-b]pyridin-6-amine], the results for the Ki at C-CBL (residues 46-435) and on CBL-B (residues 36-427) were 2320 nM and 268 nM, respectively.

As for `Cn1cnnc1CC1(c2cccc(-c3n[nH]c4cnc(C(F)(F)F)nc34)c2)COC1` [Example B2, 3-(3-{3-[(4-methyl-4H-1,2,4-triazol-3-yl)methyl]oxetan-3-yl}phenyl)-5-(trifluoromethyl)-1H-pyrazolo[4,3-d]pyrimidine], the Ki on C-CBL (residues 46-435) was 2400 nM; at CBL-B (residues 36-427) it was 398 nM.

Turning to `CC(NC(=O)[C@@H](C)O)c1nc(C(F)(F)F)cc2c(-c3cccc([C@H](c4nncn4C)C4CCC4)c3)n[nH]c12` (single isomer, unassigned) [Example I6], the Ki at C-CBL (residues 46-435) is 84.3 nM; on CBL-B (residues 36-427), 7.8 nM.

In the case of `CC[C@@H](c1cccc(-c2n[nH]c3c([C@H](C)NC[C@H](C)O)nc(C(F)(F)F)cc23)c1)c1nncn1C` (single isomer, unassigned) [Example D78], the Ki at C-CBL (residues 46-435) worked out at 271 nM; on CBL-B (residues 36-427), 71.2 nM.

As to `C[C@@H](N[C@@H]1COC[C@H]1O)c1nc(C(F)(F)F)cc2c(-c3cccc([C@H](c4nncn4C)C4CCC4)c3)n[nH]c12` (single isomer, unassigned) [Example D60], the Ki was found to be 82.3 nM on C-CBL (residues 46-435) and 12.3 nM at CBL-B (residues 36-427).

`Cn1cnnc1[C@@H](c1cccc(-c2n[nH]c3c(CN[C@@H]4CC[C@@H]4O)nc(C(F)(F)F)cc23)c1)C1CCC1` (single isomer, unassigned) [Example D93]: the Ki was found to be 2.4 nM at C-CBL (residues 46-435) and 0.8 nM at CBL-B (residues 36-427).

As for `CN1CCC[C@@H]1COc1nc(C(F)(F)F)cc2c(-c3cccc(C4(Cc5nncn5C)COC4)c3)n[nH]c12` [Example J6, 7-{[(2R)-1-methylpyrrolidin-2-yl]methoxy}-3-(3-{3-[(4-methyl-4H-1,2,4-triazol-3-yl)methyl]oxetan-3-yl}phenyl)-5-(trifluoromethyl)-1H-pyrazolo[3,4-c]pyridine], the Ki was found to be 196 nM at C-CBL (residues 46-435) and 48.9 nM on CBL-B (residues 36-427).

For `CC(N[C@H](C)[C@H](C)O)c1nc(C(F)(F)F)cc2c(-c3cccc([C@H](c4nncn4C)C4CCC4)c3)n[nH]c12` (single isomer, unassigned) [Example C116], the Ki at C-CBL (residues 46-435) stood at 204 nM; on CBL-B (residues 36-427) it was 18.2 nM.
